Experiments:
[1] = target: Serine/threonine-protein kinase PLK3 (Homo sapiens) (UniProt Q9H4B4); assay: Inhibition of PLK3 at 10 uM
[2] = target: Interleukin-1 receptor-associated kinase 1 (Homo sapiens) (UniProt P51617); assay: Inhibition of IRAK1 at 10 uM
[3] = target: Protein-tyrosine kinase 6 (Homo sapiens) (UniProt Q13882); assay: Inhibition of BRK at 10 uM
[4] = test system: Platelet-derived growth factor receptor alpha (Homo sapiens), P16234 [V561D]; assay: Inhibition of PDGFRa V561D mutant at 10 uM
Platelet-derived growth factor receptor alpha (Homo sapiens), P16234 [V561D], sequence (P16234 whole entry V561D, the tested form may be a part): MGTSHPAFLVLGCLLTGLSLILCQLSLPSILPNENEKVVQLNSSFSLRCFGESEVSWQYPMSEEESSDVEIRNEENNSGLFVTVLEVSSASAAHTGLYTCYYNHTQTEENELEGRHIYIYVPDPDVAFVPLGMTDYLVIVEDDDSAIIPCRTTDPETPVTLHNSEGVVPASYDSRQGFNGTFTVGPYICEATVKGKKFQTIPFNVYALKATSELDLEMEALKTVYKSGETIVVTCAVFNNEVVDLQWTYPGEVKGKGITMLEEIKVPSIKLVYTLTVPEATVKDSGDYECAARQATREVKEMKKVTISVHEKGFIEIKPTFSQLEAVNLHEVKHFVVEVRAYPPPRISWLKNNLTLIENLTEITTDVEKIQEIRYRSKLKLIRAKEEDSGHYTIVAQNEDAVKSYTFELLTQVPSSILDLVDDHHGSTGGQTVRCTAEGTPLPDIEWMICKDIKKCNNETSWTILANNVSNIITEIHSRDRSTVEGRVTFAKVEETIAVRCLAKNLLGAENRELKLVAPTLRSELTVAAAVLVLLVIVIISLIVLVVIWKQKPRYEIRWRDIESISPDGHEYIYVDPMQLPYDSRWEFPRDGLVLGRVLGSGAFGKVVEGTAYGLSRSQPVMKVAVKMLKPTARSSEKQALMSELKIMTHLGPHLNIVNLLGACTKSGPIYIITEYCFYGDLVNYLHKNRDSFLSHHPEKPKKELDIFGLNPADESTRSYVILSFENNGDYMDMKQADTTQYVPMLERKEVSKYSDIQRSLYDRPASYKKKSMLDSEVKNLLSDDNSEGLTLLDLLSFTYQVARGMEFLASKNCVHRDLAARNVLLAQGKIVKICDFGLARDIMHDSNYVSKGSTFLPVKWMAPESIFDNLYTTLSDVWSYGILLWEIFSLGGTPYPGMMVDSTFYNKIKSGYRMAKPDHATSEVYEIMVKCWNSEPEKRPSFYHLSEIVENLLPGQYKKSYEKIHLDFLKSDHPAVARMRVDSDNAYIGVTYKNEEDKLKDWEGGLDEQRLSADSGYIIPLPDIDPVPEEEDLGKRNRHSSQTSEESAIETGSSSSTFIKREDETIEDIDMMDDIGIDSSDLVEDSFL

[5] = target: Discoidin domain-containing receptor 2 (Homo sapiens) (UniProt Q16832); assay: Inhibition of DDR2 at 10 uM
[6] = target: Phosphorylase b kinase gamma catalytic chain, skeletal muscle/heart isoform (Homo sapiens) (UniProt Q16816); assay: Inhibition of PHKG1 at 10 uM
[7] = target: Serine/threonine-protein kinase 24 (Homo sapiens) (UniProt Q9Y6E0); assay: Inhibition of MST3 at 10 uM
[8] = target: Serine/threonine-protein kinase PAK 4 (Homo sapiens) (UniProt O96013); assay: Inhibition of PAK4 at 10 uM
[9] = target: Casein kinase I isoform epsilon (Homo sapiens) (UniProt P49674); assay: Inhibition of CK1e at 10 uM
[10] = target: Vascular endothelial growth factor receptor 3 (Homo sapiens) (UniProt P35916); assay: Inhibition of FLT4 at 10 uM
[11] = target: Fibroblast growth factor receptor 4 (Homo sapiens) (UniProt P22455); assay: Inhibition of FGFR4 at 10 uM
[12] = target: Ephrin type-B receptor 3 (Homo sapiens) (UniProt P54753); assay: Inhibition of EPHB3 at 10 uM
[13] = target: Eukaryotic translation initiation factor 2-alpha kinase 3 (Homo sapiens) (UniProt Q9NZJ5); assay: Inhibition of PEK at 10 uM
Eukaryotic translation initiation factor 2-alpha kinase 3 (Homo sapiens), sequence (Q9NZJ5 whole entry, canonical isoform): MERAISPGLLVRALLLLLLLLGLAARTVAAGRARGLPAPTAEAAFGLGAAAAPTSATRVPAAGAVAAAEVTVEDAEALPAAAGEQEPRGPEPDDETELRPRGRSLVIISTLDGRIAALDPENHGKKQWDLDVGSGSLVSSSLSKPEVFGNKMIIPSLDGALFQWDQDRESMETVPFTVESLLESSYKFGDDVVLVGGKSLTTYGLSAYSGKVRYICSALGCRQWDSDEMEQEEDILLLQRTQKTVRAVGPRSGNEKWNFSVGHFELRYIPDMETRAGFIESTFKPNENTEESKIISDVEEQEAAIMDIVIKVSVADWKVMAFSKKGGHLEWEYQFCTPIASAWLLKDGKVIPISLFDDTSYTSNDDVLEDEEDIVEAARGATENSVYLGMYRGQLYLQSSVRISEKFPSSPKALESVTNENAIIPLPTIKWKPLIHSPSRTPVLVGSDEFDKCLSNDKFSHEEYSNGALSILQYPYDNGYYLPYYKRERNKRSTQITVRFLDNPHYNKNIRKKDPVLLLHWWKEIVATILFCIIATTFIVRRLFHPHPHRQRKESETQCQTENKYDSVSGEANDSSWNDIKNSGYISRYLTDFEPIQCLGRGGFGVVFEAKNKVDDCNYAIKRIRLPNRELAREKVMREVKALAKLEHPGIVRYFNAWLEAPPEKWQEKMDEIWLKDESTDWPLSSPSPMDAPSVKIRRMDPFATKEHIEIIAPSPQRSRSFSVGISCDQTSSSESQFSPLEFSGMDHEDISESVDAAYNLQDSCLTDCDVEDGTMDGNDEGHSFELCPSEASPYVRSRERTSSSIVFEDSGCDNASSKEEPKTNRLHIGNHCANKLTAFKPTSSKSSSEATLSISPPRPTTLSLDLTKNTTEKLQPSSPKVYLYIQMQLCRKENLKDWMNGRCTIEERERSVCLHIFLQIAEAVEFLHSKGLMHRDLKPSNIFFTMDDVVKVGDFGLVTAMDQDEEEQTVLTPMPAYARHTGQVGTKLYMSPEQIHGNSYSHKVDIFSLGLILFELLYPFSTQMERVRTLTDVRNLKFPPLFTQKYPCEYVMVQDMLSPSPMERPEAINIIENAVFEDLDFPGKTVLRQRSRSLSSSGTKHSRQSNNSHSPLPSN

[14] = target: Phosphorylase b kinase gamma catalytic chain, liver/testis isoform (Homo sapiens) (UniProt P15735); assay: Inhibition of PHKG2 at 10 uM
[15] = target: Wee1-like protein kinase (Homo sapiens) (UniProt P30291); assay: Inhibition of WEE1 at 10 uM
[16] = target: Serine/threonine-protein kinase Sgk3 (Homo sapiens) (UniProt Q96BR1); assay: Inhibition of SGK3 at 10 uM
[17] = target: Mitogen-activated protein kinase kinase kinase 4 (Homo sapiens) (UniProt Q9Y6R4); assay: Inhibition of MAP3K4 at 10 uM
[18] = target: Mitogen-activated protein kinase kinase kinase 10 (Homo sapiens) (UniProt Q02779); assay: Inhibition of MLK2 at 10 uM
Mitogen-activated protein kinase kinase kinase 10 (Homo sapiens), sequence (Q02779 whole entry, looked up): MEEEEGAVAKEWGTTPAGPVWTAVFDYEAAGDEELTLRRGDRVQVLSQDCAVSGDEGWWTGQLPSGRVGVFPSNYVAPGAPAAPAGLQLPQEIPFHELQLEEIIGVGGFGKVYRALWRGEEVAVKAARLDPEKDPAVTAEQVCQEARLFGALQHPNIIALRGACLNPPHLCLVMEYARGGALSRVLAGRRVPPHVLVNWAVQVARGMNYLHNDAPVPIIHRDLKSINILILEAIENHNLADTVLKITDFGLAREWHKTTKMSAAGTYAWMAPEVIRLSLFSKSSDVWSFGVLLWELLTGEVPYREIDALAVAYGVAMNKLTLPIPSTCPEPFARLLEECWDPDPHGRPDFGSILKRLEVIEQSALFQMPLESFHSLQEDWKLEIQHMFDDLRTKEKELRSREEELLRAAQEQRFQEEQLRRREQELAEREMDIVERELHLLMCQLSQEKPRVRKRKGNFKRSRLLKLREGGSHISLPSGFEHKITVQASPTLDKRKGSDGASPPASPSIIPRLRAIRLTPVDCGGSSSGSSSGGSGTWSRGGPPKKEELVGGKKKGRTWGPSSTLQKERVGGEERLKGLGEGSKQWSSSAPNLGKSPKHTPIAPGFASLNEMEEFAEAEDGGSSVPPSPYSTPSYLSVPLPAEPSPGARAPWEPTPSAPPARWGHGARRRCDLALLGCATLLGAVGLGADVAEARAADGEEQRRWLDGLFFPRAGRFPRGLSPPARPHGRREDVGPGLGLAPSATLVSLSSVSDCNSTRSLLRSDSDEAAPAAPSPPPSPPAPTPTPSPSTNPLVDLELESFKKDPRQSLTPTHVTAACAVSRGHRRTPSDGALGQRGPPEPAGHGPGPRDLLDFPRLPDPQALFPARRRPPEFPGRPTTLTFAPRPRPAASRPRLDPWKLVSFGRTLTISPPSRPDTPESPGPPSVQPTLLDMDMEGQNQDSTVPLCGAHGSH

[19] = target: Serine/threonine-protein kinase WNK1 (Homo sapiens) (UniProt Q9H4A3); assay: Inhibition of WNK1 at 10 uM
[20] = target: Serine/threonine-protein kinase D3 (Homo sapiens) (UniProt O94806); assay: Inhibition of PKD3 at 10 uM
[21] = target: Ribosomal protein S6 kinase alpha-1 (Homo sapiens) (UniProt Q15418); assay: Inhibition of RSK1 N-terminal at 10 uM
[22] = target: Ribosomal protein S6 kinase alpha-6 (Homo sapiens) (UniProt Q9UK32); assay: Inhibition of RSK4 N-terminal at 10 uM
[23] = target: Mitogen-activated protein kinase 9 (Homo sapiens) (UniProt P45984); assay: Inhibition of JNK2 at 10 uM
[24] = target: Aurora kinase B/Inner centromere protein (Homo sapiens) (UniProt Q96GD4+Q9NQS7); assay: Inhibition of AurB-INCENP at 10 uM; format: protein-complex assay
[25] = target: Death-associated protein kinase 1 (Homo sapiens) (UniProt P53355); assay: Inhibition of DAPK1 at 10 uM
[26] = target: Casein kinase II alpha'/ beta (Homo sapiens) (UniProt P67870+P19784); assay: Inhibition of CK2a2/b at 10 uM; format: protein-complex assay
Casein kinase II alpha'/ beta (Homo sapiens), sequence (P19784 whole entry partner): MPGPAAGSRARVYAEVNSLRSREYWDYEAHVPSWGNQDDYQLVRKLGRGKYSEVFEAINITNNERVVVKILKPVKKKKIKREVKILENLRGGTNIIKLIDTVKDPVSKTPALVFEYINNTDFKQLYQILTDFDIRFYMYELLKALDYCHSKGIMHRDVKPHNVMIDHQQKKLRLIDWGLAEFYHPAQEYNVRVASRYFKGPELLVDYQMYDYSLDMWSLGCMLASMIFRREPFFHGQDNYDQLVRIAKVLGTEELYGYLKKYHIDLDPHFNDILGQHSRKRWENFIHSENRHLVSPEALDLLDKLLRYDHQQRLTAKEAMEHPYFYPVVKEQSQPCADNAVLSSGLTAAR
Casein kinase II alpha'/ beta (Homo sapiens), sequence (P67870 2-215 limits assumed): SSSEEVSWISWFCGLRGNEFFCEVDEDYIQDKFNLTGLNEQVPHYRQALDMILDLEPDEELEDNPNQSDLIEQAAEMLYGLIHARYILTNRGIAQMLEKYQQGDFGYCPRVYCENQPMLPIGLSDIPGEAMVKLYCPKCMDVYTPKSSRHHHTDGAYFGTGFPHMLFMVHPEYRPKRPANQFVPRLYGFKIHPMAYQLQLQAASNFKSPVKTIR

[27] = target: Maternal embryonic leucine zipper kinase (Homo sapiens) (UniProt Q14680); assay: Inhibition of MELK at 10 uM
[28] = target: Mitogen-activated protein kinase kinase kinase 12 (Homo sapiens) (UniProt Q12852); assay: Inhibition of DLK at 10 uM
[29] = target: Tyrosine-protein kinase Lck (Homo sapiens) (UniProt P06239); assay: Inhibition of LCK at 10 uM
[30] = target: Serine/threonine-protein kinase LATS2 (Homo sapiens) (UniProt Q9NRM7); assay: Inhibition of LATS2 at 10 uM
[31] = target: Serine/threonine-protein kinase D2 (Homo sapiens) (UniProt Q9BZL6); assay: Inhibition of PKD2 at 10 uM
[32] = target: MAP/microtubule affinity-regulating kinase 4 (Homo sapiens) (UniProt Q96L34); assay: Inhibition of MARK4 at 10 uM
[33] = target: SRSF protein kinase 1 (Homo sapiens) (UniProt Q96SB4); assay: Inhibition of SRPK1 at 10 uM
[34] = target: Cytoplasmic tyrosine-protein kinase BMX (Homo sapiens) (UniProt P51813); assay: Inhibition of BMX at 10 uM
[35] = target: Lymphokine-activated killer T-cell-originated protein kinase (Homo sapiens) (UniProt Q96KB5); assay: Inhibition of PBK at 10 uM
[36] = target: Tyrosine-protein kinase receptor TYRO3 (Homo sapiens) (UniProt Q06418); assay: Inhibition of TYRO3 at 10 uM
[37] = target: PAS domain-containing serine/threonine-protein kinase (Homo sapiens) (UniProt Q96RG2); assay: Inhibition of PASK at 10 uM
PAS domain-containing serine/threonine-protein kinase (Homo sapiens), sequence (Q96RG2 whole entry, the tested form may be a part): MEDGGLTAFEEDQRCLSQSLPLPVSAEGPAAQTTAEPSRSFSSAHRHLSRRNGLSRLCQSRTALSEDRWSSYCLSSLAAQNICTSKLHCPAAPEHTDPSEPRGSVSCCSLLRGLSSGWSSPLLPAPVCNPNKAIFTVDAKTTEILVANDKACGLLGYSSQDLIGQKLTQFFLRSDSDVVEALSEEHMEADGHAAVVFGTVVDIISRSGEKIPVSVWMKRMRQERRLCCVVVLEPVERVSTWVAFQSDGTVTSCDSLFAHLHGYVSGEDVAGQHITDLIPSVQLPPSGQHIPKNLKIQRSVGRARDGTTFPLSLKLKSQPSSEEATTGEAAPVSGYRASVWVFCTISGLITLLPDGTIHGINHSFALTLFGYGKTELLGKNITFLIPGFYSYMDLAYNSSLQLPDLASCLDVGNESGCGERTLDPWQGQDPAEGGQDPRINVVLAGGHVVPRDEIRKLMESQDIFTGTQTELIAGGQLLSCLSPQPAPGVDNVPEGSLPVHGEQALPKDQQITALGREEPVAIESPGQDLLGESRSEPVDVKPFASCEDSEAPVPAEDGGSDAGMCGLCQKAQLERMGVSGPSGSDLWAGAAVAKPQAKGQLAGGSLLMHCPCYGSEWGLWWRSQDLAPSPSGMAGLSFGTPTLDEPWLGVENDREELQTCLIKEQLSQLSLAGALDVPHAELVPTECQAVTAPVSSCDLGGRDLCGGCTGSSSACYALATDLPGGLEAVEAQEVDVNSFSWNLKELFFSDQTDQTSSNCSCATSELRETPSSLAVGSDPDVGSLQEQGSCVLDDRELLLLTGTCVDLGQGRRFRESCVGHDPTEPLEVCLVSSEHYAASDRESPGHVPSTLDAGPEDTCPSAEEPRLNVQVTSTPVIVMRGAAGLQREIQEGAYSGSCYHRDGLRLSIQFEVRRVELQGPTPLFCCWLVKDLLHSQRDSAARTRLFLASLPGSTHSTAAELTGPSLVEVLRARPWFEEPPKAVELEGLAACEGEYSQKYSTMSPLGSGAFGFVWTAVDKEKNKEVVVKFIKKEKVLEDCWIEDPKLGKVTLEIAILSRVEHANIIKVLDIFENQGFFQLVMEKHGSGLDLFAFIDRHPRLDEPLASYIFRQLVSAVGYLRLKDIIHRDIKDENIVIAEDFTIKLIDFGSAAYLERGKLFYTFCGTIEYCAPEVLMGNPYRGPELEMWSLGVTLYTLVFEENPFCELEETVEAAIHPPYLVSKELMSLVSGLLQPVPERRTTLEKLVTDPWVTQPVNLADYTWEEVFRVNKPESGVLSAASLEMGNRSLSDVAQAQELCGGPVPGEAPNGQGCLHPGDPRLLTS

[38] = target: Protein kinase C beta type (Homo sapiens) (UniProt P05771); assay: Inhibition of PKCbeta2 at 10 uM
[39] = target: Ephrin type-A receptor 5 (Homo sapiens) (UniProt P54756); assay: Inhibition of EPHA5 at 10 uM
[40] = target: Platelet-derived growth factor receptor beta (Homo sapiens) (UniProt P09619); assay: Inhibition of PDGFRb at 10 uM
[41] = target: Proto-oncogene serine/threonine-protein kinase mos (Homo sapiens) (UniProt P00540); assay: Inhibition of MOS at 10 uM
[42] = target: Insulin-like growth factor 1 receptor (Homo sapiens) (UniProt P08069); assay: Inhibition of IGF1R at 10 uM
[43] = target: Vascular endothelial growth factor receptor 1 (Homo sapiens) (UniProt P17948); assay: Inhibition of FLT1 at 10 uM
[44] = test system: Mast/stem cell growth factor receptor Kit (Homo sapiens), P10721 [V654A]; assay: Inhibition of KIT V654A mutant at 10 uM
[45] = target: Mitogen-activated protein kinase 11 (Homo sapiens) (UniProt Q15759); assay: Inhibition of p38beta at 10 uM
[46] = Inhibition of CDK4/[…] at 10 uM
[47] = target: Dual specificity mitogen-activated protein kinase kinase 6 (Homo sapiens) (UniProt P52564); assay: Inhibition of MAP2K6 at 10 uM

Which results are given for COc1ccc2c3ccnc(C(F)(F)F)c3n(CCCCN)c2c1?
inhibition [1]: 10%; inhibition [2]: 53%; inhibition [3]: 1%; inhibition [4]: 31%; inhibition [5]: 7%; inhibition [6]: 49%; inhibition [7]: 9%; inhibition [8]: 13%; inhibition [9]: 41%; inhibition [10]: 9%; inhibition [11]: 6%; inhibition [12]: 0%; inhibition [13]: 0%; inhibition [14]: 26%; inhibition [15]: 0%; inhibition [16]: 13%; inhibition [17]: 8%; inhibition [18]: 5%; inhibition [19]: 5%; inhibition [20]: 92%; inhibition [21]: 27%; inhibition [22]: 23%; inhibition [23]: 8%; inhibition [24]: 5%; inhibition [25]: 41%; inhibition [26]: 1%; inhibition [27]: 78%; inhibition [28]: 3%; inhibition [29]: 11%; inhibition [30]: 26%; inhibition [31]: 84%; inhibition [32]: 50%; inhibition [33]: 7%; inhibition [34]: 3%; inhibition [35]: 12%; inhibition [36]: 16%; inhibition [37]: 92%; inhibition [38]: 28%; inhibition [39]: 4%; inhibition [40]: 73%; inhibition [41]: 16%; inhibition [42]: 0%; inhibition [43]: 8%; inhibition [44]: 5%; inhibition [45]: 5%; inhibition [46]: 27%; inhibition [47]: 46%

Source: ChEMBL document CHEMBL2010722, “Structure-activity relationship study of beta-carboline derivatives as haspin kinase inhibitors” (Bioorg Med Chem Lett, 2012)
